{"source": "patent US20030207856A1", "about": "“Medical devices and compositions for delivering anti-proliferatives to anatomical sites at risk for restenosis” (priority 2002, published 2003)", "tested_on": "Human coronary smooth muscles cells (HCASMC)", "experiment": "Human coronary artery smooth muscle cell proliferation inhibition", "format": "cell-based", "details": "day four, both cell culture schemes, FIGS. 6 and 7", "procedure": "Inhibition of Human Coronary Artery Smooth Muscle Cells by Geldanamycin\n1. Human coronary smooth muscles cells (HCASMC) were obtained from Clonetics, a division of Cambrex, Inc.\n2. HCASMA basal media, supplied by Clonetics and supplemented with fetal bovine serum, insulin, hFGF-B (human fibroblast growth factor) hEGF (human epidermal growth factor).\nHuman coronary smooth muscles cells (HCASMC) were seeded in 24 well polystyrene tissue culture plates at a density of 5×10^3 cells per well. Two different feeding and reading strategies were employed. Strategy 1: Cells were plated in cell culture media containing various concentrations of geldanamycin (see Table 1) and incubated at 37° C. for 48 hours. After the initial 48 hour incubation, the geldanamycin containing plating media was changed and the cells were fed with drug free media and incubated for an additional 48 hours and then read.\nStrategy 2: Cells were plated in cell culture media containing various concentrations of geldanamycin (see Table 1) and incubated at 37° C. for 48 hours. After the initial 48 hours incubation, the geldanamycin-containing plating media was changed and the cells were fed with geldanamycin-containing media and incubated for an additional 48 hours and then read. […]\nOn day four cultures were analyzed to determine the proliferation inhibition effects of geldanamycin. […]"}
{"compound": "COC1=C2C[C@@H](C)C[C@H](OC)[C@H](O)[C@@H](C)/C=C(\\C)[C@H](OC(N)=O)[C@@H](OC)/C=C\\C=C(/C)C(=O)NC(=CC1=O)C2=O", "note": "[geldanamycin]", "values": [{"measurement": "HCASMC inhibition (percent inhibition of proliferation)", "setting": "geldanamycin 0.9 nM", "value": "> 50", "unit": "%"}, {"measurement": "HCASMC inhibition (percent inhibition of proliferation)", "setting": "geldanamycin 50 nM", "value": "~100", "unit": "%"}]}
